These results are taken from US9896443B2, “Perforin inhibiting benzenesulfonamide compounds, preparation and uses thereof” (Peter MacCallum Cancer Institute, priority 2012, dated 2018).

Series [1] concerns KHYG-1 NK cell-mediated lysis of K562 cells. Kind of series: Inhibition of KHYG-1 NK cell-mediated lysis of K562 cells (51Cr release). It is filed as cell-based. Conditions: 4 h, K562 target cells, Effector:Target 2:1, 4 hours at 37° C. How it is done: Inhibition of KHYG-1 NK Cell-Mediated Lysis of K562 Cells.
Test compounds were added to KHYG-1 cells at various concentrations up to 20 µM and incubated at RT for 20 minutes. 1×10^6 K562 target cells were labelled with 75 μCi ^51Cr in 200 μl RPMI for 90 mins at 37° C., cells were washed as described above and resuspended in 5 ml RPMI+0.1% BSA. 50 μl of ^51Cr labelled K562 leukemia target cells were added to each well of the KHYG-1 plate (Effector:Target 2:1) and incubated at 37° C. for 4 hours. ^51Cr release was assayed using a Skatron Harvesting Press and radioactivity estimated on a Wallac Wizard 1470 Automatic Gamma counter (Turku, Finland). The percentage of specific cytotoxicity was calculated by the formula: […]

Series [2] has as its target recombinant perforin (UniProt P10820). It is filed as cell-based. How it is done:
Inhibition of perforin-mediated lysis of Jurkat cells.
The ability of the compounds to inhibit the lysis of nucleated (Jurkat T lymphoma) cells in the presence of 0.1% BSA, as measured by release of ^51Cr was measured. Jurkat target cells were labelled by incubation in medium with 100 μCi ^51Cr for one hour. The cells were then washed three times to remove unincorporated isotope and re-suspended at 1×10^5 cells per mL in RPMI buffer supplemented with 0.1% BSA. […] Each data point was performed in triplicate and an IC50 was calculated from the range of concentrations described to above.

Setting [3] is: read-out: Jurkat IC50; lysis of Jurkat T lymphoma cells by recombinant perforin, 0.1% BSA, 30 min pre-incubation, 4 hours at 37° C.
The mark [4] stands for this setting: lysis of Jurkat T lymphoma cells by recombinant perforin, 0.1% BSA, 30 min pre-incubation, 4 hours at 37° C.; read-out: Jurkat IC50.

Read-outs that look alike come from different tables or passages of the source.

Sequence of recombinant perforin (P10820 whole entry): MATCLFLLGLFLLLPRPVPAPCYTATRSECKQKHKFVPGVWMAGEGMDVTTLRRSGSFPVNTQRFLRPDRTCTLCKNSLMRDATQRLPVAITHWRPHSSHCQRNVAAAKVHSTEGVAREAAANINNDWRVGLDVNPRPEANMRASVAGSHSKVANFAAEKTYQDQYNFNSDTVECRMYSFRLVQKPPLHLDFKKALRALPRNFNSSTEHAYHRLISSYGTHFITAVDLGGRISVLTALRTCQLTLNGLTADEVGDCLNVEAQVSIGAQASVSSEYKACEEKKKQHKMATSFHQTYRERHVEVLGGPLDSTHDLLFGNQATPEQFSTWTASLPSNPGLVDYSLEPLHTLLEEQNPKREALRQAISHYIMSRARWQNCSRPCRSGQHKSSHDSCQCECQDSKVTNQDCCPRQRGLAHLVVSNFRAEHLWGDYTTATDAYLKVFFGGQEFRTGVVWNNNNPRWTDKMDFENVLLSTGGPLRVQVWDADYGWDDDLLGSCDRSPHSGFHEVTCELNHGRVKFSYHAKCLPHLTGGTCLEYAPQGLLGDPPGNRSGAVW

Usually melting point stands for the temperature, or range, at which the solid turns liquid. `CN1Cc2cc(-c3ccc(-c4cncc(NS(=O)(=O)c5ccc(C(C)(C)C)cc5)c4)s3)ccc2C1=O` [Compound 3, 4-(tert-Butyl)-N-(5-(5-(2-methyl-1-oxoisoindolin-5-yl)thiophen-2-yl)pyridin-3-yl)benzenesulfonamide]: the melting point lay within 285 to 288 °C. Same read-out and setting: next, `CN1Cc2cc(-c3ccc(-c4cncc(NS(=O)(=O)c5cccc(F)c5)c4)s3)ccc2C1=O` [Compound 5, 3-Fluoro-N-(5-(5-(2-methyl-1-oxoisoindolin-5-yl)thiophen-2-yl)pyridin-3-yl)benzene-sulfonamide]: 292 to 294 °C; `CN1Cc2cc(-c3ccc(-c4cncc(NS(=O)(=O)c5ccc(F)c(F)c5)c4)s3)ccc2C1=O` [Compound 7, 3,4-Difluoro-N-(5-(5-(2-methyl-1-oxoisoindolin-5-yl)thiophen-2-yl)pyridin-3-yl)benzene-sulfonamide]: 282 to 285 °C; `CN1Cc2cc(-c3ccc(-c4cncc(NS(=O)(=O)c5ccc(OC(F)(F)F)cc5)c4)s3)ccc2C1=O` [Compound 24, N-(5-(5-(2-Methyl-1-oxoisoindolin-5-yl)thiophen-2-yl)pyridin-3-yl)-4-(trifluoromethoxy)benzenesulfonamide]: 293 to 296 °C. Usually inhibition stands for the relative decrease from the control value, in per cent. High values mean strong suppression, low ones little suppression. For orientation: IC50 means the point on the concentration scale where inhibition reaches its midpoint. Compound `CN1C(=O)Cc2cc(-c3ccc(-c4cncc(NS(=O)(=O)c5ccc(F)cc5F)c4)s3)ccc21` [Compound 66, 2,4-Difluoro-N-(5-(5-(1-methyl-2-oxoindolin-5-yl)thiophen-2-yl)pyridin-3-yl)benzenesulfonamides] had an inhibition at 20 µM in series [1] of 34.3 ± 9%. Also, the IC50 in series [2] (setting [3]) worked out at 10.2 µM.

In series [1], `O=C1Cc2cc(-c3ccc(-c4cncc(NS(=O)(=O)c5ccc(F)cc5F)c4)s3)ccc2N1` [Compound 67, 2,4-Difluoro-N-(5-(5-(2-oxoindolin-5-yl)thiophen-2-yl)pyridin-3-yl)benzenesulfonamides] came in with an inhibition at 20 µM of 42.8 ± 10%. In addition, the IC50 in series [2] (setting [3]) came to 5.04 µM. As for `Cc1cc(F)ccc1S(=O)(=O)Nc1cncc(-c2ccc(-c3ccc4c(c3)CN(C)C4=O)s2)c1` [Compound 70, 4-Fluoro-2-methyl-N-(5-(5-(2-methyl-1-oxoisoindolin-5-yl)thiophen-2-yl)pyridin-3-yl)benzenesulphonamide], 20 µM produced 17.6 ± 13% inhibition in series [1]. Also, the IC50 in series [2] (setting [4]) amounted to 5.53 µM.

Consider `Cn1ccc2cc(-c3ccc(-c4cncc(NS(=O)(=O)c5ccc(F)cc5F)c4)s3)ccc21` [Compound 72, 2,4-Difluoro-N-(5-(5-(1-methyl-1H-indol-5-yl)thiophen-2-yl)pyridin-3-yl)benzenesulfonamide], for which testing at 20 µM in series [1] gave an inhibition of 19 ± 17%. Also, the IC50 in series [2] (setting [3]) turned out to be 8.63 µM. In series [1], `CN1Cc2cc(-c3ccc(-c4cncc(NS(=O)(=O)c5ccc(C(=O)O)cc5)c4)s3)ccc2C1=O` [Compound 73, 4-(N-(5-(5-(2-Methyl-1-oxoisoindolin-5-yl)thiophen-2-yl)pyridin-3-yl)sulfamoyl)benzoic acid] returned an inhibition at 20 µM of 56.9 ± 29.6%. For the same compound, the IC50 in series [2] (setting [4]) was determined as 0.75 µM. The matching figures for `CN1Cc2cc(-c3ccc(-c4cncc(NS(=O)(=O)c5ccc(I)cc5)c4)s3)ccc2C1=O` [Compound 74, 4-Iodo-N-(5-(5-(2-methyl-1-oxoisoindolin-5-yl)thiophen-2-yl)pyridin-3-yl)benzenesulfonamides]: 15.6 ± 5% and 5 µM. In the case of `CN1Cc2cc(-c3ccc(-c4cncc(NS(=O)(=O)c5ccc(Br)cc5Br)c4)s3)ccc2C1=O` [Compound 75, 2,4-Dibromo-N-(5-(5-(2-methyl-1-oxoisoindolin-5-yl)thiophen-2-yl)pyridin-3-yl)benzenesulfonamides], testing at 20 µM in series [1] gave an inhibition of 49.2 ± 15%. For the same compound, the IC50 in series [2] (setting [4]) came to 2.52 µM. `CN1Cc2cc(-c3ccc(-c4cncc(NS(=O)(=O)c5ccc(-c6ccno6)s5)c4)s3)ccc2C1=O` [Compound 76, 5-(Isoxazol-5-yl)-N-(5-(5-(2-methyl-1-oxoisoindolin-5-yl)thiophen-2-yl)pyridin-3-yl)thiophene-2-sulfonamide]: in series [1], 20 µM produced 47.5 ± 10% inhibition. In addition, in series [2] (setting [4]), the IC50 is 7.1 µM.

Consider `CN1Cc2cc(-c3ccc(-c4cncc(NS(=O)(=O)c5ccc(-c6cnco6)cc5)c4)s3)ccc2C1=O` [Compound 77, N-(5-(5-(2-Methyl-1-oxoisoindolin-5-yl)thiophen-2-yl)pyridin-3-yl)-4-(oxazol-5-yl)benzenesulfonamides], for which the inhibition at 20 µM in series [1] amounted to 38.3 ± 5%. In series [2] (setting [4]), the IC50 was determined as 3.05 µM.

`CN1Cc2cc(-c3ccc(-c4cncc(NS(=O)(=O)c5ccccc5C(F)(F)F)c4)s3)ccc2C1=O` [Compound 78, N-(5-(5-(2-Methyl-1-oxoisoindolin-5-yl)thiophen-2-yl)pyridin-3-yl)-2-(trifluoromethyl)benzenesulfonamide]: in series [1], testing at 20 µM gave an inhibition of 56 ± 9%. For the same compound, in series [2] (setting [4]), the IC50 was found to be 1.45 µM. With `CN1Cc2cc(-c3ccc(-c4cncc(NS(=O)(=O)c5cccc(C(F)(F)F)c5)c4)s3)ccc2C1=O` [Compound 81, N-(5-(5-(2-Methyl-1-oxoisoindolin-5-yl)thiophen-2-yl)pyridin-3-yl)-3-(trifluoromethyl)benzenesulfonamides], the inhibition at 20 µM in series [1] turned out to be 37.8 ± 19%. In series [2] (setting [4]), the 50% inhibitory concentration (IC50) worked out at 0.91 µM. As to `CN1Cc2cc(-c3ccc(-c4cncc(NS(=O)(=O)c5ccccc5S(C)(=O)=O)c4)s3)ccc2C1=O` [Compound 82, N-(5-(5-(2-Methyl-1-oxoisoindolin-5-yl)thiophen-2-yl)pyridin-3-yl)-2-(methylsulfonyl)benzenesulfonamides], the inhibition at 20 µM in series [1] stood at 30.5 ± 11%. Besides, the IC50 in series [2] (setting [4]) came to 6.8 µM. Take `COC(=O)c1ccc(S(=O)(=O)Nc2cncc(-c3ccc(-c4ccc5c(c4)CN(C)C5=O)s3)c2)cc1` [Compound 84, Methyl 4-(N-(5-(5-(2-methyl-1-oxoisoindolin-5-yl)thiophen-2-yl)pyridin-3-yl)sulfamoyl)benzoate]: in series [1], the inhibition at 20 µM came out at 8.84%. In addition, the half-maximal inhibitory concentration (IC50) in series [2] (setting [4]) came to 8.16 µM. In the case of `COC(=O)c1ccccc1S(=O)(=O)Nc1cncc(-c2ccc(-c3ccc4c(c3)CN(C)C4=O)s2)c1` [Compound 86, Methyl 2-(N-(5-(5-(2-methyl-1-oxoisoindolin-5-yl)thiophen-2-yl)pyridin-3-yl)sulfamoyl)benzoate], in series [1], the inhibition at 20 µM was found to be 2.3 ± 3%. Also, in series [2] (setting [4]), the IC50 came out at 2.9 µM. In series [1], `CN1Cc2cc(-c3ccc(-c4cncc(NS(=O)(=O)c5ccc(Br)s5)c4)s3)ccc2C1=O` [Compound 87, 5-Bromo-N-(5-(5-(2-methyl-1-oxoisoindolin-5-yl)thiophen-2-yl)pyridin-3-yl)thiophene-2-sulphonamide] had an inhibition at 20 µM of 31.6 ± 6%. In series [2] (setting [3]), the IC50 turned out to be 1.8 µM. The matching figures for `CN1Cc2cc(-c3ncc(-c4cncc(NS(=O)(=O)c5ccc(F)cc5F)c4)s3)ccc2C1=O` [Compound 88, 2,4-Difluoro-N-(5-(2-(2-methyl-1-oxoisoindolin-5-yl)thiazol-5-yl)pyridin-3-yl)benzenesulphonamide]: 40.5 ± 23% and 18.8 µM. In series [1], `CN1Cc2cc(-c3ccc(-c4cncc(NS(=O)(=O)c5ccc(F)c(C(F)(F)F)c5)c4)s3)ccc2C1=O` [Compound 89, 4-Fluoro-N-(5-(5-(2-methyl-1-oxoisoindolin-5-yl)thiophen-2-yl)pyridin-3-yl)-3-(trifluoromethyl)benzenesulphonamide] registered an inhibition at 20 µM of 59.9 ± 13%. Besides, in series [2] (setting [4]), the IC50 is 3.75 µM.
